How the values were obtained:
[1] = In vivo pharmacokinetics in male Sprague-Dawley rats; design: species or system rat; conditions: for AUC(0-t): read-out: AUC0-tlast; for MRT inf: read-out: MRT0-inf; for half-life: read-out: Apparent t1/2 (converted)
Method: (§1) Male C57BL/6 mice (25-30 g) and male Sprague-Dawley rats (250-325 g) from Charles River Labs were acclimatized for a minimum of 5 days prior to dosing. Body weights were recorded on the day of dosing.
(§2) Animals dosed p.o. were deprived of food overnight and fed ˜2 h following dosing.
(§3) Formulations were administered intravenously (i.v.) via the tail vein or orally (p.o.) by gavage with disposable feeding needles.
(§4) Serial blood samples were collected via tail snip. Terminal blood samples were collected under isoflurane anesthesia by cardiac puncture.
(§5) All blood samples were transferred into K2EDTA tubes on wet ice and centrifuged within 5 min (3200×g for 5 min at 4° C.) to obtain plasma. Plasma was stored at −80° C. until analysis.
(§6) Mouse or rat plasma, as applicable.
(§7) AB Sciex QTRAP 4000 or 6500 MS/MS system equipped with an LC system with a binary pump, a solvent degasser, a thermostated column compartment and a multiplate autosampler. i. Analysis software: Phoenix® WinNonlin® 8.2 (Pharsight, Certara, Mountainview, Calif.) ii. Analysis methods: non-compartmental analysis, linear up/log down trapezoidal rule iii. PK parameters: C0, t1/2, AUC0-tlast, AUC0-∞, CL, VSS, MRT, tmax(po), Cmax(po), F, as appropriate

[2] = Human liver microsomes stability with NADPH
Method: The objective of this study was to estimate in vitro metabolic stability of 1-45 in pooled human and male mouse liver microsomes. The concentrations of exemplary compounds in reaction systems were evaluated by LC-MS/MS for estimating the stability in pooled human and male mouse liver microsomes. The in vitro intrinsic clearances of test compounds were determined as well.
A master solution in the “Incubation Plate” containing phosphate buffer, ultra-pure H2O, MgCl2 solution and liver microsomes was made according to Table --. The mixture was pre-warmed at 37° C. water bath for 5 minutes.
40 μL of 10 mM NADPH solution was added to each well. The final concentration of NADPH was 1 mM. The negative control samples were prepared by replacing NADPH with 40 μL of ultra-pure H2O. Samples were prepared in duplicate. Negative controls were prepared in singlet.
The reaction was started with the addition of 4 μL of 200 μM test compounds or control compounds to each master solution to get the final concentration of 2 μM. This study was performed in duplicate.
Aliquots of 50 μL were taken from the reaction solution at 0, 15, 30, 45 and 60 minutes. The reaction solutions were stopped by the addition of 4 volumes of cold methanol with IS (100 nM alprazolam, 200 nM imipramine, 200 nM labetalol and 2 μM ketoprofen). Samples were centrifuged at 3,220 g for 40 minutes. Aliquot of 90 μL of the supernatant was mixed with 90 μL of ultra-pure H2O and then was used for LC-MS/MS analysis.
LC/MS analysis was performed for all samples from this study using a Shimadzu liquid chromatograph separation system equipped with degasser DGU-20A5R; solvent delivery unit LC-30AD; system controller SIL-30AC; column oven CTO-30A; CTC Analytics HTC PAL System. Mass spectrometric analysis was performed using an Triple Quad™ 5500 instrument.
All calculations were carried out using Microsoft Excel. Peak area ratios of test compound to internal standard (listed in the below table) were determined from extracted ion chromatograms.
All calculations were carried out using Microsoft Excel. Peak areas were determined from extracted ion chromatograms. The slope value, k, was determined by linear regression of the natural logarithm of the remaining percentage of the parent drug vs. incubation time curve.
Conversion of the in vitro t1/2 (min) into the in vitro intrinsic clearance (in vitro CLint, in μL/min/mg proteins) was done using the following equation (mean of duplicate determinations):
[formula] […] Results & Discussion

[3] = Rat liver microsomes stability with NADPH
[4] = In vivo pharmacokinetics in male C57BL/6 mice; design: species or system mouse; conditions: for AUC(0-t): read-out: AUC0-tlast; for half-life: read-out: Apparent t1/2 (converted); for MRT inf: read-out: MRT0-inf
Method: as §1, §2, §3, §4, §5, §6, §7

[5] = p.o. 3.0 mg/kg per title (dose row prints 10)
[6] = rat, plasma, iv, i.v. 0.3 mg/kg
[7] = rat, plasma, po, p.o. 3.0 mg/kg per title (dose row prints 10)
[8] = rat, plasma, sc, s.c. 0.3 mg/kg
[9] = mouse, plasma, iv, i.v. 1 mg/kg
[10] = mouse, plasma, po, p.o. 10 mg/kg

Which results are given for [2H]C([2H])([2H])N(C([2H])([2H])[2H])C([2H])([2H])C([2H])([2H])c1c[nH]c2cccc(O)c12 [Compound I-45, 3-(2-(bis(methyl-d3)amino)ethyl-1,1,2,2-d4)-1H-indol-4-ol]?
AUC0-inf/Dose ([1]; i.v. 0.3 mg/kg): 181 ± 30.8 kg·ng·h/mL/mg; AUC(0-inf) ([1]; i.v. 0.3 mg/kg): 117 ± 11.5 ng·h/mL; Apparent t1/2 ([1]; i.v. 0.3 mg/kg): 34.6 ± 3.17 h; AUC0-inf/Dose [1, 5]: 181 ± 14.6 kg·ng·h/mL/mg; Cmax/Dose [1, 5]: 79.2 ± 24.4 kg·ng/mL/mg; clearance [1, 6]: 143 mL/min/kg; AUC(0-t) [1, 6]: 35.2 ± 3.45 ng·h/mL; MRT inf [1, 6]: 1.49 ± 0.536 h; Cmax [1, 7]: 238 ± 73.3 ng/mL; Tmax [1, 7]: 0.333 ± 0.144 h; bioavailability [1, 7]: 155 ± 12.4%; AUC(0-inf) ([1]; rat, plasma, po, p.o. 3.0 mg/kg per title (dose row prints 10), read-out: AUC0-inf): 543 ± 43.7 ng·h/mL; AUC(0-t) [1, 7]: 534 ± 38.7 ng·h/mL; half-life [1, 7]: 2.61 ± 0.795 h; MRT inf [1, 7]: 2.77 ± 0.486 h; Cmax [1, 8]: 30.2 ± 12.2 ng/mL; Tmax [1, 8]: 0.278 ± 0.21 h; bioavailability [1, 8]: 125 ± 30.4%; AUC(0-inf) ([1]; rat, plasma, sc, s.c. 0.3 mg/kg, read-out: AUC0-inf): 35.9 ± 8.71 ng·h/mL; AUC(0-t) [1, 8]: 32 ± 9.2 ng·h/mL; half-life [1, 8]: 0.647 ± 0.212 h; MRT inf [1, 8]: 0.991 ± 0.228 h; AUC0-inf/Dose ([1]; s.c. 0.3 mg/kg): 120 ± 29.0 kg·ng·h/mL/mg; Cmax/Dose ([1]; s.c. 0.3 mg/kg): 101 ± 40.7 kg·ng/mL/mg; Remaining Percentage (%) after 60 min ([2]; Human, with NADPH, 2 μM): 73.65%; half-life at 2 μM ([2]; human, microsomes): 2.27 h; microsomal CLint at 2 μM ([2]; human, microsomes): 10.2 µL/min/mg; Remaining Percentage (%) after 60 min ([3]; Rat, with NADPH, 2 μM): 3.34%; half-life at 2 μM ([3]; rat, microsomes): 0.204 h; microsomal CLint at 2 μM ([3]; rat, microsomes): 113 µL/min/mg; AUC0-inf/Dose ([4]; i.v. 1 mg/kg): 181 ± 30.8 kg·ng·h/mL/mg; AUC(0-inf) [4, 9]: 181 ± 30.8 ng·h/mL; clearance [4, 9]: 94 mL/min/kg; AUC(0-t) [4, 9]: 178 ± 32.2 ng·h/mL; half-life [4, 9]: 5.32 ± 2.99 h; MRT inf [4, 9]: 1.49 ± 0.536 h; Vd ([4]; mouse, plasma, iv, i.v. 1 mg/kg, read-out: Vss): 8.34 ± 3.15 L/kg; AUC(0-inf) [4, 10]: 795 ± 121 ng·h/mL; Cmax [4, 10]: 704 ± 128 ng/mL; bioavailability [4, 10]: 44 ± 6.7%; AUC(0-t) [4, 10]: 792 ± 120 ng·h/mL; half-life [4, 10]: 4.52 ± 0.481 h; MRT inf [4, 10]: 2 ± 0.227 h; AUC0-inf/Dose ([4]; p.o. 10 mg/kg): 79.5 ± 12.1 kg·ng·h/mL/mg; Cmax/Dose ([4]; p.o. 10 mg/kg): 70.4 ± 12.8 kg·ng/mL/mg

Source: patent publication US11427604B2 (Mindset Pharma Inc., priority 2020, dated 2022)
